Data on 9 compounds can be found in patent US6541463B1, “Inhibitors of type 5 and type 3 17β-hydroxysteroid dehydrogenase and methods for their use” (Endorecherche, Inc., priority 1998, dated 2003).

Broadly, the IC50 is the midpoint of a concentration-inhibition curve. The term inhibition denotes the relative decrease from the control value, in per cent.

Assay type in all cases: biochemical
Assay [1] concerns the target T1, human type 3 17β-hydroxysteroid dehydrogenase (Homo sapiens, UniProt P37058).
T1 construct: expressed in transfected cells; host or cells: 293 cells, transient transfection; microsomal fraction (100 000×g pellet)
T1 sequence (P37058 1-310): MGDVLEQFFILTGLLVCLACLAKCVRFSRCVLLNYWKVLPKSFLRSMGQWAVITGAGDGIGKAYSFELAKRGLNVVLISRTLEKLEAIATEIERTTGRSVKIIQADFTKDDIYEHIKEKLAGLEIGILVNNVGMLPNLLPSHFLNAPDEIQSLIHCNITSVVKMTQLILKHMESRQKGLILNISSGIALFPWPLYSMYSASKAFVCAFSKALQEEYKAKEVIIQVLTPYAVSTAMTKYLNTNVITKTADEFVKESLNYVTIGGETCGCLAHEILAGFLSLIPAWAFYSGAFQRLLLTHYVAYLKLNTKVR
Kind of assay: Enzymatic assay for type 3 17β-HSD. Conditions: for IC50: Table 4′, read-out: Inhibition Type 3 17β-HSD Activity IC50. From the text: Enzymatic assay for types 1, 2, and 3 17β-HSD and types 1 and 3 3α-HSD”. Lower numbers of IC50 are desirable. Blank means that a determination was not done. The % of inhibition at the concentration of 3.10^−6M determined in preliminary screening test is reported in square braquets.
(§1) Enzyme sources. 293 cells transiently transfected with expression vectors encoding types 1, 2 and 3 17β-HSD (Luu-The et al., J. Steroid Biochem. Molec. Biol., 55: 581-587, 1995), types 1 and 2 5α-reductase (Luu-The et al., J. Invest. Dermatol., 102: 221-226, 1994) and types 1 and 3 3α-HSD (Dufort et al. Biochem. Biophys. Res. Commun. 228: 474-479, 1996), using the calcium phosphate procedure (Kingston et al., In: Current Protocols in Molecular Biology. Edited by E. M. Ausbel, R. Brent, R. E. Kingston, D. D. Moore, J. G. Seidman, J. A. Smith, K. Struhl. John Wiley & Sons, New York, pp. 9.1.1-9.1.9, 1991; Luu-The et al., J. Invest. Dermatol., 102: 221-226, 1994). For assays using cell subfractions, cells were sonicated in 50 mM sodium phosphate buffer (pH 7.4), containing 20% glycerol and 1 mM EDTA and centrifuged at 10 000×g for 30 min before centrifugation for 100 000×g for 1 h to separate the mitochondrial and microsomal fractions, respectively. The cytosol fractions (100 000×g supernatant) was used to determine type 1 activity while the microsomal fraction (pellet at 100 000×g) was used for measurement of types 2 and 3 17β-HSD activities.
(§2) Incubation. The enzymatic reaction was carried out at 37° C. in 1 ml of 50 mM sodium phosphate buffer, pH 7.4, containing 20% glycerol, 1 mM EDTA, and 2 mM cofactors (NADPH or AND^+) for 1 h in the presence of 0.1 μM ^14C-labeled substrate: estrone and 4-dione for types 1 and […] 17β-HSD, respectively, testosterone for type 2 17β-HSD as well as types 1 and 2 5α-reductases, DHT for types 1 and 3 3α-HSD activities, and the indicated concentration of inhibitor.
(§3) Extraction of metabolites, migration on TLC and quantification were as described above for the assay of type 5 17β-HSD.

For assay [2], the target named is T2, human type 1 3α-hydroxysteroid dehydrogenase (Homo sapiens, UniProt P17516).
T2 sequence (P17516 1-323): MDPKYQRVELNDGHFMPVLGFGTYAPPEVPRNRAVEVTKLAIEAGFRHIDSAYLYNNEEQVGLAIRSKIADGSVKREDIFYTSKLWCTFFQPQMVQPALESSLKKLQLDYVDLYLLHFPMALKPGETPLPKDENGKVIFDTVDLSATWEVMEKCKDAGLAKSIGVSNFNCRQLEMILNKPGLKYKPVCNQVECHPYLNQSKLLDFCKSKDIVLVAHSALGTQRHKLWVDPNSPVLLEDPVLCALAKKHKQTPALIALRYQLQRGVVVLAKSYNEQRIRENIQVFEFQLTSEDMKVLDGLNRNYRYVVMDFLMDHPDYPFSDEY
Kind of assay: Enzymatic assay for type 1 3α-HSD. Conditions: Table 4′; for IC50: read-out: Inhibition Type 1 3α-HSD Activity IC50. Here is the method:
The manner in which IC50 was determined is described in “Efficacy of Preferred Inhibitors: VI. Enzymatic assay for types 1, 2, and 3 17β-HSD and types 1 and 3 3α-HSD”. […] numbers of IC50 are desirable. Blank means that a determination was not done. […]
as §1, §2, §3

The target in assay [3] is T3, human type 3 3α-hydroxysteroid dehydrogenase (Homo sapiens, UniProt P52895).
T3 construct: expressed in transfected cells; host or cells: 293 cells, transient transfection
T3 sequence (P52895 1-323): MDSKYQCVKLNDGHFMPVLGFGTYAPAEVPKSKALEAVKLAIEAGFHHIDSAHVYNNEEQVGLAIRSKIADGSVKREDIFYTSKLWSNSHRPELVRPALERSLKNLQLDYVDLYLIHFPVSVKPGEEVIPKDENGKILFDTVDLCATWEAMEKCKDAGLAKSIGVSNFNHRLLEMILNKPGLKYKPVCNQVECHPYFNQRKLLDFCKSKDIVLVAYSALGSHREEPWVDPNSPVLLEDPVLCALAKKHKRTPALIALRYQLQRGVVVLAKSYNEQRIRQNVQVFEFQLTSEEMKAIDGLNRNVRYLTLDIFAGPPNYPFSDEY
Put plainly: Enzymatic assay for type 3 3α-HSD. Conditions: Table 4′; read-out: Inhibition Type 3 3α-HSD Activity IC50. Here is the method:
The manner in which IC50 was determined is described in “Efficacy of Preferred Inhibitors: VI. Enzymatic assay for types 1, 2, and 3 17β-HSD and types 1 and 3 3α-HSD”. […] numbers of IC50 are desirable. Blank means that a determination was not done. The % of inhibition at the concentration of 3.10^−6M determined in preliminary screening test is reported in square braquets.
as §1, §2, §3

A value given as a limit tells only on which side of the number the result lay.

For the compound `CC1(C)CCC2(CCC3C4CCc5cc(OS(C)(=O)=O)ccc5C4CCC32C)OC1=O` (stereo not shown) [EM-1365-CS], the IC50 in assay [1], in assay [2] and in assay [3] was greater than 10 µM each time.

`COCCOc1cc2c(cc1C(=O)OC)C1CC[C@@]3(C)C(CC[C@@]34CCC(C)(C)C(=O)O4)C1CC2` (stereo partly drawn) [EM-1402-CS, 2-Carbomethoxy-3-(2″-methoxyethyloxy)-1,3,5(10)-estratrien 17(R)-spiro-2′-(5′,5′-dimethyl-6′-oxo)tetrahydropyran]: the IC50 in assay [1], in assay [2] and in assay [3] was greater than 10 µM in each case.

Consider `CC1(C)CC[C@@]2(CCC3C4CCc5cc(F)ccc5C4CC[C@@]32C)OC1=O` (stereo partly shown) [EM-1157-CS], for which the concentration for half-maximal inhibition (IC50) in assay [1], in assay [2] and in assay [3] was greater than 10 µM in each case.

For the compound `COCCOc1cc2c(cc1C(N)=O)C1CC[C@@]3(C)C(CC[C@@]34CCC(C)(C)C(=O)O4)C1CC2` (stereo partly drawn) [EM-1424, 2-Carbamoyl-3-(2″-methoxyethyloxy)-1,3,5(10)-estratrien 17(R)-spiro-2′-(5′,5′-dimethyl-6′-oxo)tetrahydropyran], the half-maximal inhibitory concentration (IC50) in assay [1], in assay [2] and in assay [3] was greater than 10 µM throughout.

As for `CCC[C@@H]1CC2C3C=CC4=CC(=O)CC[C@]4(C)C3CC[C@]2(C)C1=O` (stereo partly shown) [EM-1097], the inhibition at 3 µM in assay [1] (3 · 10^−6 M, value in square brackets, read-out: Inhibition Type 3 17B-HSD Activity [% Inh. at 3 · 10^−6 M]) was 82%.

On to `CC1(C)CC[C@@]2(CCC3C4CCc5cc(C(N)=O)ccc5C4CCC32C)OC1=O` (stereo partly shown) [EM-1404], for which the IC50 in assay [1], in assay [2] and in assay [3] was greater than 10 µM each time.

On to `COc1ccc2c(c1)C(=O)CC1C2CC[C@@]2(C)C1CC[C@@]21CCC(C)(C)C(=O)O1` (stereo partly shown) [EM-1394], for which the IC50 in assay [1], in assay [2] and in assay [3] was greater than 10 µM in each case.

Take `CC1(C)CC[C@@]2(CCC3C4CCc5cc(C(=O)O)ccc5C4CC[C@@]32C)OC1=O` (stereo partly drawn) [EM-1401, 3-Carboxy-1,3,5(10)-estratrien-17(R)-spiro-2′-(5′,5′-dimethyl-6′-oxo)tetrahydropyran]: the IC50 in assay [1] and in assay [3] was greater than 10 µM throughout. The “Inhibition Type 1 3α-HSD Activity [% Inh. at 3 · 10^8M]” value in assay [2] (bracketed value, 3 · 10^−6 M) was “[76] %”.

As to `COCCOc1cc2c(cc1C#N)C1CC[C@@]3(C)C(CC[C@@]34CCC(C)(C)C(=O)O4)C1CC2` (stereo partly shown) [EM-1396], the IC50 in assay [1], in assay [2] and in assay [3] was greater than 10 µM each time.
